# Like-named read-outs stand apart in the source and are kept apart here.
# How the values were obtained:
# [1] = molecular target: T1, cytoplasmic domain of the human CSF-1R (Homo sapiens, UniProt P07333); assay: In vitro kinase assay for colony stimulating factor-1 receptor (AlphaScreen); type: biochemical; conditions: tested at about 1 μM, read-out: CSF-1R percent inhibition
# T1 construct: Recombinant protein corresponding to the cytoplasmic domain of the human CSF-1R; purchased Invitrogen Corporation, Carlsbad, Calif; PV3249
# T1 sequence (P07333 539-972 limits assumed): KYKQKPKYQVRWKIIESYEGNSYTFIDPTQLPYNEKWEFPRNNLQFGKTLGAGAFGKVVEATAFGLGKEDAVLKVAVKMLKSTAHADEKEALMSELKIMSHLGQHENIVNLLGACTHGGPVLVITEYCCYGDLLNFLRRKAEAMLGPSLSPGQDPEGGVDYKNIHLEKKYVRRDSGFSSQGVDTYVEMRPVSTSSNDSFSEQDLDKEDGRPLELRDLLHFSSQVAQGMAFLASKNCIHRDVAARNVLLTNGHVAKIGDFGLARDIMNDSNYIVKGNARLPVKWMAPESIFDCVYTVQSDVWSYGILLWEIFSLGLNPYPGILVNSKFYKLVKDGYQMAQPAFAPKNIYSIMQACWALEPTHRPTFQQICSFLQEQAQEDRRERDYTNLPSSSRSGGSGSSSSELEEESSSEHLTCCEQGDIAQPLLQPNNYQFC
# In short: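 4 nM enzyme, 1 μM ATP; buffer 50 mM Hepes pH 7.5, 5 mM MgCl2, 10 mM MnCl2, 1.0 mM DTT, 0.1% BSA, 0.01% Tween 80. Readout: AlphaScreen, PT66 acceptor/streptavidin donor, overnight.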
# kinase domain of cKIT = molecular target: T2, kinase domain of cKIT (Homo sapiens, UniProt P10721); assay: Inhibition of cKIT kinase signaling in an in vitro biochemical assay (alphascreen); conditions: tested at about 1 μM, read-out: cKit percent inhibition
# T2 construct: The kinase domain of cKIT was assayed in 50 mM Hepes; purchased Upstate 14-559
# T2 sequence (P10721 589-937 limits assumed): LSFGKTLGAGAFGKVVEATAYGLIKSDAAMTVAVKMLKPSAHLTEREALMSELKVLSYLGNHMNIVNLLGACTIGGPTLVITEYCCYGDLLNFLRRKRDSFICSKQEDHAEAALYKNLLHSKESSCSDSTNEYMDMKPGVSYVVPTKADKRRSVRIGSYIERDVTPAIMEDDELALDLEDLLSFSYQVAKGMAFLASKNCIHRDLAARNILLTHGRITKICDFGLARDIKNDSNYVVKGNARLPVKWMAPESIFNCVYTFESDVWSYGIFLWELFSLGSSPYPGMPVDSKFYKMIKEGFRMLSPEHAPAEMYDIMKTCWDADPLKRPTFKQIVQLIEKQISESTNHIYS
# [2] = tested on: MNFS60 (murine AML cells); assay: Cell viability assay in MCSF dependent MNFS60 cells (Cell Titer Glo); type: cell-based; conditions: Mus musculus, tested at about 1 μM, read-out: M-NFS-60 CP percent inhibition
# Description: Cell viability was assessed by Cell Titer Glo, Promega. […] Test compounds were serially diluted (3 fold) in DMSO to 500× the final concentration. […] Final concentration of MCSF is 10 ng/ml. Cells were incubated for 72 hrs at 37° C., 5% CO2. After the incubation 100 μl Cell Titer Glo is added to each well to determine viable cells. The assay was performed according to the manufacturer's instruction (Promega Corporation, Madison, Wis. USA). Each experimental condition was performed in triplicate. Raw data was imported in Abase and EC50s calculated with XL-fit data analysis software.
# kinase domain of PDGFRβ = molecular target: T3, kinase domain of PDGFRβ (Homo sapiens, UniProt P09619); assay: Inhibition of PDGFRb kinase signaling in an in vitro biochemical assay (alphascreen); conditions: tested at about 1 μM, read-out: PDGFRβ percent inhibition
# T3 construct: The kinase domain of PDGFRβ was assayed in 50 mM Hepes; purchased Invitrogen P3082
# T3 sequence (P09619 600-962 limits assumed): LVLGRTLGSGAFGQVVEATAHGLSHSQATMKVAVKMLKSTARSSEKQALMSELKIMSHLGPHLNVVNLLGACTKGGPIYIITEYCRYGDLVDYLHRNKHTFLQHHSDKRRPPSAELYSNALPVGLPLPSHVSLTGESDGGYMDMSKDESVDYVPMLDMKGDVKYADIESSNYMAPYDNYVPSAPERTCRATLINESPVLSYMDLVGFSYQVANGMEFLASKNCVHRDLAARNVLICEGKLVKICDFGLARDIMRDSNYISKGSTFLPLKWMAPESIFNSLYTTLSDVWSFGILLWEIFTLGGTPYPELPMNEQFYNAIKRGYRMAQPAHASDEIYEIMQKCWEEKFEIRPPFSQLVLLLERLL
SMILES,inhibition at 1 µM [1] [%],inhibition at 1 µM (kinase domain of cKIT) [%],inhibition at 1 µM ([2]; MCSF dependent MNFS60 cells) [%],inhibition at 1 µM (kinase domain of PDGFRβ) [%],inhibition at 1 µM ([2]; MNFS60 cells) [%],inhibition at 1 µM ([1]; compounds of Table 3) [%],inhibition at 1 µM (kinase domain of cKIT; compounds of Table 3) [%],inhibition at 1 µM ([2]; compounds of Table 3) [%],inhibition at 1 µM (kinase domain of PDGFRβ; compounds of Table 3) [%]
"CNC(=O)c1cc(Oc2ccc3nc(NCCc4cccnc4)sc3c2)ccn1 [Example 315, N-methyl-4-(2-(2-(pyridin-3-yl)ethylamino)benzo[d]thiazol-6-yloxy)picolinamide]",98,17,27,0,,,,,
"CNC(=O)c1cc(Oc2ccc3nc(NCc4ccc5c(c4)OCCO5)oc3c2)ccn1 [Compound 122, 4-{2-[(2,3-Dihydro-benzo-[1,4]dioxin-6-ylmethyl)-amino]-benzooxazol-6-yloxy}-pyridine-2-carboxylic acid methylamide]",100,53,,0,19,,,,
"CNC(=O)c1cc(Oc2ccc3nc(NCc4c(Cl)cccc4Cl)oc3c2)ccn1 [Compound 76, 4-[2-(2,6-Dichloro-benzylamino)-benzooxazol-6-yloxy]-pyridine-2-carboxylic acid methylamide]",98,9,,0,0,,,,
"CC[C@H](C)[C@@H](CO)Nc1nc2ccc(Oc3ccnc4ccccc34)cc2s1 [Example 234, (2S,3S)-3-methyl-2-(6-(quinolin-4-yloxy)benzo[d]thiazol-2-ylamino)pentan-1-ol]",,,,,,100,64,78,56
"NC(=O)c1cc(Oc2ccc3nc(NCC4CCCCC4)oc3c2)ccn1 [Compound 69, 4-[2-(Cyclohexylmethyl-amino)-benzooxazol-6-yloxy]-pyridine-2-carboxylic acid amide]",100,0,,0,0,,,,
CNC(=O)c1cc(Oc2ccc3nc(NCc4ccccc4)sc3c2)ccn1 [Compound 138],,,,,,100,100,105,37
"C[C@H](Nc1nc2ccc(Oc3ccnc(-c4ccnn4C)c3)cc2s1)C1CCCCC1 [Example 277, (S)-N-(1-cyclohexylethyl)-6-(2-(1-methyl-1H-pyrazol-5-yl)pyridin-4-yloxy)benzo[d]thiazol-2-amine]",,,,,,100,26,24,5
"FC(F)Oc1ccccc1CNc1nc2ccc(Oc3ccnc4ccccc34)cc2s1 [Example 246, N-(2-(difluoromethoxy)benzyl)-6-(quinolin-4-yloxy)benzo[d]thiazol-2-amine]",,,,,,100,100,100,82
"c1ccc2c(Oc3ccc4nc(NC5CCCCCC5)sc4c3)ccnc2c1 [Example 247, N-cycloheptyl-6-(quinolin-4-yloxy)benzo[d]thiazol-2-amine]",,,,,,100,100,100,80
"CNC(=O)c1cc(Oc2ccc3nc(NCCc4ccccc4)oc3c2)ccn1 [Compound 61, 4-(2-Phenylethylamino-benzo-oxazol-6-yloxy)-pyridine-2-carboxylic acid methylamide]",94,74,,0,35,,,,
OC[C@H](CC1CCCCC1)Nc1nc2ccc(Oc3ccnc4ccccc34)cc2s1 [Example 250],,,,,,97,98,20,0
O[C@@H]1CCCC[C@H]1Nc1nc2ccc(Oc3ccnc(-c4cncs4)c3)cc2s1 [Compound 157],,,,,,100,43,42,17
"O[C@@H]1CCCC[C@H]1Nc1nc2ccc(Oc3ccnc(-c4cncnc4)c3)cc2s1 [Example 285, (1R,2R)-2-(6-(2-(pyrimidin-5-yl)pyridin-4-yloxy)benzo[d]thiazol-2-ylamino)cyclohexanol]",,,,,,99,33,0,8
"CNC(=O)c1cc(Oc2ccc3nc(NCc4ccc(OC)cc4OC)oc3c2)ccn1 [Compound 92, 4-[2-(2,4-Dimethoxy-benzyl-amino)-benzooxazol-6-yloxy]-pyridine-2-carboxylic acid methylamide]",99,98,,,17,,,,
"CNC(=O)c1cc(Oc2ccc3nc(NC4CCCCC4)oc3c2)ccn1 [Compound 24, 4-(2-Cyclohexylamino-benzooxazol-6-yloxy)-pyridine-2-carboxylic acid methylamide]",99,,,20,12,,,,
"CC[C@@H](Nc1nc2ccc(Oc3ccnc(C(=O)NC)c3)cc2o1)c1ccccc1 [Compound 19, 4-[2-((R)-1-Phenyl-propyl-amino)-benzooxazol-6-yloxy]-pyridine-2-carboxylic acid methylamide]",100,,,2,36,,,,
"CC(=O)Nc1cc(Oc2ccc3nc(NC4CCCCC4)oc3c2)ccn1 [Compound 29, N-[4-(2-Cyclohexylamino-benzooxazol-6-yloxy)-pyridin-2-yl]-acetamide]",99,,,51,0,,,,
"CNC(=O)c1cc(Oc2ccc3nc(Nc4ccccc4)oc3c2)ccn1 [Compound 26, 4-(2-Phenylamino-benzooxazol-6-yloxy)-pyridine-2-carboxylic acid methylamide]",98,,,100,24,,,,
"CNC(=O)c1cc(Oc2ccc3nc(Nc4ccccc4-c4cnco4)oc3c2)ccn1 [Compound 46, 4-[2-(2-Oxazol-5-yl-phenylamino)-benzooxazol-6-yloxy]-pyridine-2-carboxylic acid methylamide]",94,,,15,1,,,,
"CCOc1ccccc1Nc1nc2ccc(Oc3ccnc(C(=O)NC)c3)cc2o1 [Compound 12, 4-[2-(2-Ethoxy-phenylamino)-benzooxazol-6-yloxy]-pyridin-2-carboxylic acid methylamide]",99,,,12,30,,,,
"CNC(=O)c1cc(Oc2ccc3nc(Nc4ccccc4CCN4CCOCC4)oc3c2)ccn1 [Compound 48, 4-{2-[2-(2-Morpholin-4-yl-ethyl)-phenylamino]-benzo-oxazol-6-yloxy}-pyridine-2-carboxylic acid methylamide]",84,,,0,0,,,,
"CNC(=O)c1cc(Oc2ccc3nc(Nc4cccc5c4OCCO5)oc3c2)ccn1 [Compound 94, 4-[2-(2,3-Dihydro-benzo-[1,4]dioxin-5-ylamino)-benzooxazol-6-yloxy]-pyridine-2-carboxylic acid methylamide]",99,14,,,28,,,,
"CNC(=O)c1cc(Oc2ccc3nc(NCc4c(F)cccc4F)oc3c2)ccn1 [Compound 87, 4-[2-(2,6-Difluoro-benzylamino)-benzooxazol-6-yloxy]-pyridine-2-carboxylic acid methylamide]",99,42,,,21,,,,
"CNC(=O)c1cc(Oc2ccc3nc(Nc4ccccc4OC)oc3c2)ccn1 [Compound 11, 4-[2-(2-Methoxy-phenylamino)-benzooxazol-6-yloxy]-pyridin-2-carboxylic acid methylamide]",99,,,96,26,,,,
"CNC(=O)c1cc(Oc2ccc3nc(NCc4ccc(OC)c(OC)c4)oc3c2)ccn1 [Compound 90, 4-[2-(3,4-Dimethoxy-benzyl-amino)-benzooxazol-6-yloxy]-pyridine-2-carboxylic acid methylamide]",99,22,,,18,,,,

# Reference: patent US8173689B2 (Novartis AG, priority 2006, dated 2012)
